# Reference: patent publication US20110217300A1, “Quinazolinone Compounds and Methods of Use Thereof” (priority 2007, published 2011)
# Legend:
# DU145 xenograft = assay: Xenograft model; type: in vivo, mice; settings: DU145, Prostate; procedures and dosages of Examples 106-108
# A375 xenograft = assay: Xenograft model; type: in vivo, mice; settings: A375, Skin; procedures and dosages of Examples 106-108
# HT29 xenograft = assay: Xenograft model; type: in vivo, mice; settings: HT29, Colon; procedures and dosages of Examples 106-108
# PACA2 tumor xenografts [1] = assay: PACA2 tumor xenograft efficacy study (Example 106); type: in vivo, mice
# Procedure: Six-week old female athymic nude mice (NCR nu/nu; Charles River Laboratory, Wilmington, Mass.) were acclimated to the animal housing facility for at least 1 week before the study. Efficacy studies were performed in athymic mice bearing PACA2 tumor xenografts to determine the effect of compound on tumor growth. Tumor cells (1×10^7 PACA2 cells/animal) were inoculated subcutaneously on day 0. Tumor dimensions were measured by a digital microcaliper, and tumor volumes were calculated as length×width^2/2. […] Results are expressed as mean tumor volume±SE. To assess differences in tumor size between groups, a Mann-Whitney non-parametric t test was performed and significance was assessed for p values <0.05. Tumor size was evaluated periodically during treatment at the indicated days post-inoculation. Results are represented as the mean of tumor volume in mm^3±SE of several tumors (n=10) in function of the treatment period. […] (See FIG. 1A).
# MIA-PaCa2 xenograft = assay: Xenograft model; type: in vivo, mice; settings: MIA-PaCa2, Pancreas; procedures and dosages of Examples 106-108
# Procedure: Six-week old female athymic nude mice (NCR nu/nu; Charles River Laboratory, Wilmington, Mass.) were acclimated to the animal housing facility for at least 1 week before the study. Efficacy studies were performed in athymic mice bearing PACA2 tumor xenografts to determine the effect of compound on tumor growth. Tumor cells (1×10^7 PACA2 cells/animal) were inoculated subcutaneously on day 0. Tumor dimensions were measured by a digital microcaliper, and tumor volumes were calculated as length×width^2/2. […] Results are expressed as mean tumor volume±SE. To assess differences in tumor size between groups, a Mann-Whitney non-parametric t test was performed and significance was assessed for p values <0.05. Tumor size was evaluated periodically during treatment at the indicated days post-inoculation. […]
# Six weeks old female athymic nude mice (NCR nu/nu) received from Charles River Laboratory, acclimated to the animal housing facility for one week before initiation of the study. […] Tumor dimensions were measured three times weekly by a digital microcaliper, and tumor volumes were calculated as length×width^2/2. […] Results are expressed as mean tumor volume±SE. To assess differences in tumor size between groups, student's t test was performed and significance was assessed for p values <0.05. Tumor size was evaluated periodically during treatment at the indicated days post-inoculation. […]
# [2] = system: MDA-MB-231 tumor xenografts; assay: MDA-MB-231 tumor xenograft efficacy study; type: in vivo, mice
# Procedure: Six weeks old female athymic nude mice (NCR nu/nu) received from Charles River Laboratory, acclimated to the animal housing facility for one week before initiation of the study. Mice were housed in sterile cages of 4 each with autoclaved bedding, provided with autoclaved food and water ad libitum. Efficacy studies were performed in athymic mice bearing MDA-MB-231 tumor xenografts to determine the effect of compound on tumor growth. Tumor cells (5×10^6 MDA-MB-231 cells/animal) were inoculated subcutaneously on day 0. Tumor dimensions were measured three times weekly by a digital microcaliper, and tumor volumes were calculated as length×width^2/2. When tumors reached a volume of ˜100 mm^3, mice were randomized into groups and treated 3× weekly (Monday-Wednesday-Friday, followed by a 2-day dosing holiday) intraperitoneally. With either vehicle control or 3 mg/kg, 6 mg/kg and 12 mg/kg compound formulated in DMA/PEG400/water (4:8:88). Results are expressed as mean tumor volume±SE. To assess differences in tumor size between groups, student's t test was performed and significance was assessed for p values <0.05. Tumor size was evaluated periodically during treatment at the indicated days post-inoculation. Results are represented as the mean of tumor volume in mm^3±SE of several tumors (n=8) in function of the treatment period.
# The in vivo activity of N-(3-amino-propyl)-3-chloro-N—[(R)-1-(7-chloro-4-oxo-3-phenylamino-3,4-dihydro-quinazolin-2-yl)-but-3-ynyl]-2-fluoro-benzamide was tested using xenograft models using cell lines as reported in Table 4. The experiments were performed using the general procedures and dosages of Examples 106-108.
# PACA2 tumor xenografts [3] = assay: PACA2 tumor xenograft efficacy study (Example 107); type: in vivo, mice; settings: 3 mg/kg or 12.5 mg/kg intraperitoneally 3x weekly
# Procedure: Six weeks old female athymic nude mice (NCR nu/nu) received from Charles River Laboratory, acclimated to the animal housing facility for one week before initiation of the study. Mice were housed in sterile cages of 4 each with autoclaved bedding, provided with autoclaved food and water ad libitum. Efficacy studies were performed in athymic mice bearing PACA2 tumor xenografts to determine the effect of compound on tumor growth. Tumor cells (1×10^7 PACA2 cells/animal) were inoculated subcutaneously on day 0. Tumor dimensions were measured three times weekly by a digital microcaliper, and tumor volumes were calculated as length×width^2/2. When tumors reached a volume of ˜300 mm^3, mice were randomized into groups and treated 3× weekly (Monday-Wednesday-Friday, followed by a 2-day dosing holiday) intraperitoneally. With either vehicle control or 3 mg/kg and 12.5 mg/kg compound formulated in DMA/PEG400/water (20:40:40). Results are expressed as mean tumor volume±SE. To assess differences in tumor size between groups, student's t test was performed and significance was assessed for p values <0.05. Tumor size was evaluated periodically during treatment at the indicated days post-inoculation. Results are represented as the mean of tumor volume in mm^3±SE of several tumors (n=10) in function of the treatment period. […] (See FIG. 1B).
# SK-OV-3 xenograft = assay: Xenograft model; type: in vivo, mice; settings: SK-OV-3, Ovary; procedures and dosages of Examples 106-108
# [4] = system: late-stage solid tumors or hematologic malignancies; assay: Phase I clinical study, open-label dose escalation, intravenous; type: in vivo, patients
# Procedure: An open-label, dose escalation study of intravenous N-(3-amino-propyl)-3-chloro-N—[(R)-1-(7-chloro-4-oxo-3-phenylamino-3,4-dihydro-quinazolin-2-yl)-but-3-ynyl]-2-fluoro-benzamide was performed. The title compound was administered to patients with late-stage solid tumors or hematologic malignancies. […] There were 3-6 patients per cohort.
# [5] = patients with the tumor types listed in Table 5
smiles,measurement,setting,value
"C#CC[C@H](c1nc2cc(Cl)ccc2c(=O)n1Nc1ccccc1)N(CCCN)C(=O)c1cccc(Cl)c1F [Compound 1, N-(3-Amino-propyl)-3-chloro-N—[(R)-1-(7-chloro-4-oxo-3-phenylamino-3,4-dihydro-quinazolin-2-yl)-but-3-ynyl]-2-fluoro-benzamide]",Xenograft Outcome (approximate percent growth inhibition),DU145 xenograft,~75%
same,Xenograft Outcome (approximate percent growth inhibition),A375 xenograft,small
same,Xenograft Outcome (approximate percent growth inhibition),HT29 xenograft,~30%
same,tumor growth compared to the vehicle control group,"PACA2 tumor xenografts [1]; 6.25 or 12.5 mg/kg intraperitoneally 3x weekly for 4 weeks, tumors ~100 mm^3 at start, FIG. 1A",Significant reductions in tumor growth
same,tolerability of doses,"PACA2 tumor xenografts [1]; 6.25 or 12.5 mg/kg intraperitoneally 3x weekly, PACA2 xenograft mice",well-tolerated
same,Xenograft Outcome (approximate percent growth inhibition),MIA-PaCa2 xenograft,~90%
same,tolerability of doses,"[2]; 3 mg/kg, 6 mg/kg or 12 mg/kg intraperitoneally 3x weekly, MDA-MB-231 xenograft mice",well-tolerated
same,tumor growth compared to the vehicle control group,"[2]; 3 mg/kg, 6 mg/kg or 12 mg/kg intraperitoneally 3x weekly, tumors ~100 mm^3 at start, FIG. 2",Significant reductions in tumor growth
same,Xenograft Outcome (approximate percent growth inhibition),"[2]; MDA-MB-231, Breast, procedures and dosages of Examples 106-108",~80%
same,tolerability of doses,PACA2 tumor xenografts [3]; PACA2 xenograft mice,well-tolerated
same,tumor growth compared to the vehicle control group,"PACA2 tumor xenografts [3]; tumors ~300 mm^3 at start, FIG. 1B",Significant reductions in tumor growth
same,Xenograft Outcome (approximate percent growth inhibition),SK-OV-3 xenograft,~50%
same,Duration on Study,"[4]; Cohort 1, 10 mg/m^2 intravenous, Cholangiocarcinoma (bile duct)",24 weeks
same,Duration on Study,"[4]; Cohort 2, 20 mg/m^2 intravenous, Colorectal cancer",17 weeks
same,Duration on Study,"[4]; Cohort 2, 20 mg/m^2 intravenous, Liposarcoma (soft tissue)",24 weeks
same,Duration on Study,"[4]; Cohort 4, 53 mg/m^2 intravenous, Leiomyosarcoma (smooth muscle)",39 weeks
same,Duration on Study,"[4]; Cohort 5, 70 mg/m^2 intravenous, Carcinoid",24 weeks
same,Duration on Study,"[4]; Cohort 6, 100 mg/m^2 intravenous, Colorectal cancer",19 weeks
same,Duration on Study,"[4]; Cohort 9, 280 mg/m^2 intravenous, Endocervical cancer",36 weeks
same,Duration on Study,"[4]; Cohort 9, 280 mg/m^2 intravenous, Malignant Thymoma, patient still on study (active)",24 (active) weeks
same,response,"[4]; endocervical cancer patient, before withdrawing consent",minor response
same,disease course,"[4]; leiomyosarcoma patient, stayed on study afterwards",tumor progression at cycle 6
same,disease status,[4]; [5],stable diseases for an extended period
same,time patients stayed on study,[4]; [5],greater than 16 weeks
